We go through 14 molecules from patent US10562912B2 (C&C Research Laboratories, priority 2013, dated 2020).

Holding throughout (type): cell-based
Test [1] addresses T1, STAT3 (Homo sapiens, UniProt P40763).
T1 construct: plasmid pSTAT3-TA-luc), which contains a stably operating STAT3 promoter; endogenous in cells
Kind of test: STAT3 reporter gene assay (luciferase), LNCaP stable cell line (pSTAT3-TA-luc), IL-6 stimulation. In a few lines: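 LNCaP cells stably carrying pSTAT3-TA-luc, in RPMI1640 with 3% DCC-FBS, were treated with compound and then stimulated with 10 ng/mL IL-6 for 24–48 h at 37 °C. Luciferase activity was measured in lysates. A parallel plate measured viability by CellTiter-Glo, with stimulated 0.1% DMSO wells as the positive control.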
(In a reporter assay the amount or activity of a reporter protein is the signal.)

In test [2] the test system is LNCaP. Kind of test: Cell growth inhibition assay, prostate cancer cell line LNCaP (medium with 10 ng/mL IL-6). Particulars: Homo sapiens, medium supplemented with 10 ng/mL of IL-6, 10,000 cells/well.
Test [3] concerns DU-145. The test is described as follows: Cell growth inhibition assay, prostate cancer cell line DU-145. Conditions: Homo sapiens, DU-145 prostate cancer cell line. Put shortly:
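Cancer cells, counted and seeded at 3,000 (DU-145, HCT116) or 5,000 (SW626) cells/well, received graded compound concentrations. Plates incubated 72–96 h at 37° C. with 5% CO2 were then assayed with CellTiter-Glo.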

Test [4] has as its system HEL92.1.7. The test is described as follows: Cell growth inhibition assay, blood cancer cell line HEL92.1.7. Particulars: Homo sapiens, HEL 92.1.7, HEL92.1.7 blood cancer cell line. The method, then: The inhibitory effects of the compounds of the present invention against the growth of cancer cells were evaluated as shown below. The cancer cell lines including stomach cancer cell line (AGS), breast cancer cell lines (MDA-MB-231, MDA-MB-468, and BT-549), prostate cancer cell lines (LNCaP and DU-145), colon cancer cell line (HCT116), ovarian cancer cell line (SW626), liver cancer cell line (Hep3B), kidney cancer cell line (ACHN), lung cancer cell line (NCI-H23) and blood cancer cell lines (HEL92.1.7 and U266) were cultured under the protocol provided by each supplier. A medium supplemented with 10 ng/mL of IL-6 was used for LNCaP, a prostate cancer cell line, when treated with a drug. Each type of cells to be used in experiments were sub-cultured in a 96-well plate by counting the exact number of cells using Tali™ Image-based Cytometer (Life Technologies). In a 96-well plate, AGS, HCT116, and DU-145 were employed with 3,000 cells/well; NCI-H23, SW626, Hep3B, ACHN, BT-549, MDA-MB-231, HEL92.1.7, and U266 were employed with 5,000 cells/well; and LNCaP and MDA-MB-468 were employed with 10,000 cells/well. The cells were treated with the compounds listed in Examples which were diluted in various concentrations. Upon completion of the compounds treatment, AGS, HCT116, SW626, DU145, NCI-H23, Hep3B, ACHN, BT-549, LNCaP, HEL92.1.7, and U266 cells were cultured at 37° C. under 5% CO2 for from 72 to 96 hours, and MDA-MB-231 and MDA-MB-468 cells were cultured at 37° C. in air for from 72 to 96 hours. Subsequently, the cells were observed under microscope and drug precipitation and particular findings were investigated and recorded. And then, the 96-well plate was placed at room temperature for 30 minutes, added with 20 μL/well of CellTiter-Glo solution (Cat No. G7573, Promega) and shaken for 10 minutes, followed by being subjected to the measurement using PHERAstar™ microplate reader (BMG LABTECH) according to the supplier's general luminometer protocol. Wells where only culture liquid added without cell plating were used as a negative control, whereas wells where culture liquid containing 0.1% DMSO instead of the compounds listed in Examples were used as a positive control.

T1 sequence (P40763 whole entry): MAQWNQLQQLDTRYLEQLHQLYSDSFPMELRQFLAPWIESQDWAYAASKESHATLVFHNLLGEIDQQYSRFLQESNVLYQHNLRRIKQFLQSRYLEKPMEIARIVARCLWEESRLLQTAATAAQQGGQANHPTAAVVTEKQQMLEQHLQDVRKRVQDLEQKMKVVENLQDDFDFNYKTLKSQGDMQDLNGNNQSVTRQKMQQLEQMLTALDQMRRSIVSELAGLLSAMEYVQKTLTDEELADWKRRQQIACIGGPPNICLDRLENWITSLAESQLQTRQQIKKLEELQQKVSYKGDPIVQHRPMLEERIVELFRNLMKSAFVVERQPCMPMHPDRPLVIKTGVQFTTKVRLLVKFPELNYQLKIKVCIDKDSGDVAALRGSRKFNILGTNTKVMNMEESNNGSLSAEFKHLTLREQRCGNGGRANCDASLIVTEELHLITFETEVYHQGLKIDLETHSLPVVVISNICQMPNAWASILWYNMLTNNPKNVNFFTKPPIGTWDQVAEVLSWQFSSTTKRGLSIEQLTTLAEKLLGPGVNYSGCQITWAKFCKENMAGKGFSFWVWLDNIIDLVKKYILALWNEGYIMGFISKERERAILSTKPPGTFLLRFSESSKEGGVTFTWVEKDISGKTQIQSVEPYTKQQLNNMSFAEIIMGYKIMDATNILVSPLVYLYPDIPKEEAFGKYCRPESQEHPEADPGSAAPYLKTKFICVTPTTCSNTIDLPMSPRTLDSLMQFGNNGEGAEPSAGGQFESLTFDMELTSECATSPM

Usually IC50 stands for the concentration needed to halve the response being measured. Consider `CC(C)Oc1cc(OC(F)(F)F)cc(C(C)(C)c2cc(Cl)cc(NC(=O)c3cc4cc(NS(C)(=O)=O)c(F)cc4s3)c2)c1` [Example 84, N-(3-chloro-5-(2-(3-isopropoxy-5-(trifluoromethoxy)phenyl)propan-2-yl)phenyl)-6-fluoro-5-(methylsulfonamido)benzo[b]thiophene-2-carboxamide], for which the IC50 in test [1] was found to be 0.004 µM; in test [2] it was 0.008 µM; in test [3] it was 0.002 µM; in test [4], 0.014 µM.
For `CC(C)(c1cc(F)cc(NC(=O)c2cc3cc(NS(C)(=O)=O)ccc3s2)c1)c1cc(OC(F)(F)F)cc(OC(F)(F)C(F)F)c1` [Example 85, N-(3-fluoro-5-(2-(3-(1,1,2,2-tetrafluoroethoxy)-5-(trifluoromethoxy)phenyl)propan-2-yl)phenyl)-5-(methylsulfonamido)benzo[b]thiophene-2-carboxamide] the same measures were 0.016 µM, 0.025 µM, 0.007 µM and 0.076 µM.
The like results for `CC(C)(c1cc(F)cc(NC(=O)c2cc3cc(NS(C)(=O)=O)ncc3s2)c1)c1cc(OC(F)(F)F)cc(OC(F)(F)C(F)F)c1` [Example 86, N-(3-fluoro-5-(2-(3-(1,1,2,2-tetrafluoroethoxy)-5-(trifluoromethoxy)phenyl)propan-2-yl)phenyl)-5-(methylsulfonamido)thieno[2,3-c]pyridine-2-carboxamide] were, in that order, 0.072 µM, 0.075 µM, 0.047 µM and 0.23 µM.
In the case of `CC(C)(c1cc(Br)cc(NC(=O)c2cc3cc(NS(C)(=O)=O)ccc3s2)c1)c1cc(OC(F)(F)F)cc(OC(F)(F)C(F)F)c1` [Example 87, N-(3-bromo-5-(2-(3-(1,1,2,2-tetrafluoroethoxy)-5-(trifluoromethoxy)phenyl)propan-2-yl)phenyl)-5-(methylsulfonamido)benzo[b]thiophene-2-carboxamide], the IC50 was found to be 0.016 µM in test [1], 0.028 µM in test [2], 0.009 µM in test [3] and 0.091 µM in test [4].
With `CC(C)(c1cc(Cl)cc(NC(=O)c2cc3cc(NS(C)(=O)=O)ccc3s2)c1)c1cc(OCC(F)(F)F)cc(OC(F)(F)F)c1` [Example 88, N-(3-chloro-5-(2-(3-(2,2,2-trifluoroethoxy)-5-(trifluoromethoxy)phenyl)propan-2-yl)phenyl)-5-(methylsulfonamido)benzo[b]thiophene-2-carboxamide], the IC50 is 0.015 µM in test [1], 0.024 µM in test [2], 0.008 µM in test [3] and 0.087 µM in test [4].
For `CC(C)(c1cc(Br)cc(NC(=O)c2cc3cc(NS(C)(=O)=O)ncc3s2)c1)c1cc(OC(F)(F)F)cc(OC(F)(F)C(F)F)c1` [Example 89, N-(3-bromo-5-(2-(3-(1,1,2,2-tetrafluoroethoxy)-5-(trifluoromethoxy)phenyl)propan-2-yl)phenyl)-5-(methylsulfonamido)thieno[2,3-c]pyridine-2-carboxamide] the same measures were 0.047 µM, 0.07 µM, 0.048 µM and 0.22 µM.
The like results for `CC(C)(c1cc(Cl)cc(NC(=O)c2cc3cc(NS(C)(=O)=O)ccc3s2)c1)c1cc(OCCN2CCOCC2)cc(OC(F)(F)F)c1` [Example 90, N-(3-chloro-5-(2-(3-(2-morpholinoethoxy)-5-(trifluoromethoxy)phenyl)propan-2-yl)phenyl)-5-(methylsulfonamido)benzo[b]thiophene-2-carboxamide] were, in that order, 0.043 µM, 0.22 µM, 0.048 µM and 0.23 µM.
Regarding `CC(C)Oc1cc(Br)cc(C(C)(C)c2cc(Cl)cc(NC(=O)c3cc4cc(NS(C)(=O)=O)ccc4s3)c2)c1` [Example 91, N-(3-(2-(3-bromo-5-isopropoxyphenyl)propan-2-yl)-5-chlorophenyl)-5-(methylsulfonamido)benzo[b]thiophene-2-carboxamide], the IC50 in test [1] was found to be 0.032 µM; in test [2], 0.056 µM; in test [3] it was 0.012 µM; in test [4], 0.078 µM.
Regarding `CC(C)Oc1cc(Cl)cc(C(C)(C)c2cc(Cl)cc(NC(=O)c3cc4cc(NS(C)(=O)=O)ccc4s3)c2)c1` [Example 92, N-(3-chloro-5-(2-(3-chloro-5-isopropoxyphenyl)propan-2-yl)phenyl)-5-(methylsulfonamido)benzo[b]thiophene-2-carboxamide], the IC50 in test [1] is 0.067 µM; in test [2], 0.071 µM; in test [3], 0.017 µM; in test [4] it was 0.1 µM.
Consider `CC(C)Oc1cc(OC(F)(F)F)cc(C(C)(C)c2cc(Cl)cc(NC(=O)c3cc4c(F)c(NS(C)(=O)=O)ccc4s3)c2)c1` [Example 93, N-(3-chloro-5-(2-(3-isopropoxy-5-(trifluoromethoxy)phenyl)propan-2-yl)phenyl)-4-fluoro-5-(methylsulfonamido)benzo[b]thiophene-2-carboxamide], for which the IC50 turned out to be 0.091 µM in test [1], 0.055 µM in test [2], 0.021 µM in test [3] and 0.12 µM in test [4].
Turning to `CN(C)CCOc1cc(OC(F)(F)F)cc(C(C)(C)c2cc(Cl)cc(NC(=O)c3cc4cc(NS(C)(=O)=O)ccc4s3)c2)c1` [Example 94, N-(3-chloro-5-(2-(3-(2-(dimethylamino)ethoxy)-5-(trifluoromethoxy)phenyl)propan-2-yl)phenyl)-5-(methylsulfonamido)benzo[b]thiophene-2-carboxamide], the IC50 in test [1] is 1.12 µM; in test [2], 0.27 µM; in test [3], 0.2 µM; in test [4], 0.35 µM.
`CC(C)(C)OC(=O)N1CCC(Oc2cc(OC(F)(F)F)cc(C(C)(C)c3cc(Cl)cc(NC(=O)c4cc5cc(NS(C)(=O)=O)ccc5s4)c3)c2)CC1` [Example 95, tert-butyl 4-(3-(2-(3-chloro-5-(5-(methylsulfonamido)benzo[b]thiophene-2-carboxamido)phenyl)propan-2-yl)-5-(trifluoromethoxy)phenoxy)piperidine-1-carboxylate]: the IC50 is 0.11 µM in test [1], 0.015 µM in test [2], 0.011 µM in test [3] and 0.69 µM in test [4].
With `CC(C)(c1cc(Cl)cc(NC(=O)c2cc3cc(NS(C)(=O)=O)ccc3s2)c1)c1cc(OC2CCNCC2)cc(OC(F)(F)F)c1` [Example 96, N-(3-chloro-5-(2-(3-(piperidin-4-yloxy)-5-(trifluoromethoxy)phenyl)propan-2-yl)phenyl)-5-(methylsulfonamido)benzo[b]thiophene-2-carboxamide], the IC50 in test [1] was 3.4 µM; in test [2] it was greater than 1.1 µM; in test [3], greater than 1.1 µM; in test [4] it was greater than 1.1 µM.
For the molecule `CC(C)Oc1cc(OC(F)(F)F)cc(C(C)(C)c2cc(Cl)cc(NC(=O)c3cc4cc(NS(=O)(=O)N5CCOCC5)ccc4s3)c2)c1` [Example 103, N-(3-chloro-5-(2-(3-isopropoxy-5-(trifluoromethoxy)phenyl)propan-2-yl)phenyl)-5-(morpholine-4-sulfonamido)benzo[b]thiophene-2-carboxamide], the IC50 in test [1] was 0.11 µM; in test [2] it was 0.035 µM; in test [3], 0.045 µM; in test [4], 0.16 µM.
